≈ marks a conversion by molar mass, not a printed value.
What was measured:
[1] = test system: rat ileum; assay: Rat ileum contraction induced by increasing concentrations of acetylcholine (neurotropic antispasmodic effect)
Description: (§1) An isolated vicenin 2 compound was tested for its antispasmodic effect with respect to the cholinergic system and with respect to nonspecific contraction mediated by Ba^++. Therefore, rat ileum was precontracted with increasing concentrations of either acetylcholine or Ba^++. The shift of either concentration response curve by the compound was determined. […] The dose of vicenin 2 for humans was estimated to be between 5 and 15 μg/70 kg b.w. which will correspond to 0.071 and 0.214 μg/kg b.w. Due to the increased metabolism in rodents compared to humans the doses were calculated as approx. between 0.5 and 1.49 μg/kg b.w. The central (blood) compartment (hydrophilic extracts) is approx. 7% of whole body volume, i.e. between 0.5/70 g and 1.4 μg/70 g blood. Since blood is in direct contact with ileum, a concentration of 7 to 20.86 μg/kg (0.007 to 0.021 μg/g) is expected for ileum. […] Therefore, it was reasonable to translate these in vivo calculations into the in vitro experiments and in these experiments 10 and 100 μl of a stock solution per 10 ml incubation bath were used. […] Under a protocol approved by the Animal Care and Use Committee of Munster, Germany, male and female rats (Charles River, Sulzfeld, Germany) weighing 200 to 320 g were used. The rats were anesthetized (CO2). The proximal ileum was removed, washed and placed in Krebs-Henseleit solution. 1 cm segments were placed in 10 mL organ baths with a resting tension of 1.0 g (preload). One end was attached to a force displacement transducer (lever transducer B40, Typ 373) combined with a two-channel amplifier (type 301, Hugo Sachs Elektronik, March, Germany); for the recording of tension changes a multi-pen recorder was used (Rikadenki Kogyo, Tokio, Japan). The composition of Krebs-Henseleit solution was (mM): […] The solution was kept at 37° C., pH 7.4 and gassed with carbogen (a 95% O2/5% CO2 mixture). Equilibration time for the ileum before starting the experiment was at least 30 min. After the tissues had been pre-treated with the extracts for 3 min cumulative concentration response curves using either acetylcholine or barium ion were recorded isotonically in the organ bath, and the effect was allowed to reach a steady state at each concentration. The results were normalized to 100% (maximum effect of either acetylcholine or barium ion alone). Differences between entire curves were obtained by comparing F-values of the best fitted curves by using GraphPad-Prism (version 3.00, GraphPad Software, Inc., 1999). P<0.05 was regarded as statistically significant.

[2] = test system: rat ileum; assay: Rat ileum contraction induced by increasing concentrations of barium ion (musculotropic antispasmodic effect)
Description: as §1

[3] = test system: rat ileum; assay: Rat ileum contraction, effect of the compound on its own (spasmolytic effect); settings: data as % of maximum acetylcholine effect; FIG. 1
Description: An isolated vicenin 2 compound was tested for its antispasmodic effect with respect to the cholinergic system and with respect to nonspecific contraction mediated by Ba^++. Therefore, rat ileum was precontracted with increasing concentrations of either acetylcholine or Ba^++. The shift of either concentration response curve by the compound was determined. […] The dose of vicenin 2 for humans was estimated to be between 5 and 15 μg/70 kg b.w. which will correspond to 0.071 and 0.214 μg/kg b.w. Due to the increased metabolism in rodents compared to humans the doses were calculated as approx. between 0.5 and 1.49 μg/kg b.w. The central (blood) compartment (hydrophilic extracts) is approx. 7% of whole body volume, i.e. between 0.5/70 g and 1.4 μg/70 g blood. Since blood is in direct contact with ileum, a concentration of 7 to 20.86 μg/kg (0.007 to 0.021 μg/g) is expected for ileum. […] Therefore, it was reasonable to translate these in vivo calculations into the in vitro experiments and in these experiments 10 and 100 μl of a stock solution per 10 ml incubation bath were used. […] After the tissues had been pre-treated with the extracts for 3 min cumulative concentration response curves using either acetylcholine or barium ion were recorded isotonically in the organ bath, and the effect was allowed to reach a steady state at each concentration. […]

[4] = test system: murine frontal cortex networks; assay: Pattern recognition classification of activity patterns against the NeuroProof database (105 substances); format: cell-based, mice; settings: AUC-V, all 143
Description: Afterwards, a further analysis was carried out through a pattern-recognition analysis and through comparison with NeuroProof database to determine relevant mechanisms involved in the frontal cortex activity pattern induced changes by each substance.
To clarify the mode of action of the test substance on the activity of cortical networks these experiments were further analyzed using methods of pattern recognition. For each stable concentration activity phase we normalized the 200 spike train parameters by the native reference activity.
Using a feature selection algorithm, on the basis of the reference substances, the 40 most descriptive parameters for all 200 spike train parameters were selected. The rankings of activity features using various score methods based on classification experiments and compared their total correct predictions were calculated. In this manner, the best results for a MDL (minimal description length) modified algorithm were obtained. A training data set with these 40 spike train parameters was established in the form of data records from the reference substances. An artificial neuronal network, multi layer feed forward network and back propagation algorithm […] hidden units was then trained. The respective data records of the four substances were all subsequently classified. A classification against 105 substances in the database was carried out.
The classification against 105 substances using the electrophysiological multi-channel recording of vicenin 2 and the 105 substances identified several activities for vicenin 2.

[5] = Solubility of isolated vicenin 2; format: physicochemical
[6] = test system: murine frontal cortex networks; assay: Cortical network activity in vitro, electrophysiological multi-channel recordings on MEA neurochips; format: cell-based, mice
Description: Purpose of this example was the evaluation of the acute neuroactive effects of vicenin 2 (named AUC-V) on the neuronal activity of murine frontal cortex networks in vitro by means of electrophysiological multi-channel recordings.
Therefore, in a first step the dose-effect curve of vicenin 2 was plotted by means of cumulatively increasing the substance concentration, so that the spectrum of activity of the substance is optimally covered with 9 concentrations. Concentration from 100 fg/ml, 10 pg/ml, […], 1 ng/ml, 100 ng/ml, 1 μg/ml, 10 μg/ml, 100 μg/ml and 300 μg/ml were used.
Subsequently, the measurements of the dose-effect curve of the test substances were repeated at least 10 times. The recorded electrical activity patterns were characterized by 200 features and their changes were statistically evaluated.
The microelectrode array neurochips (MEA neurochips) were provided by the Center for Network Neuroscience (CNNS) at the University of North Texas. These 5×5 cm^2 glass chips have a central recording matrix with 64 passive electrodes and indium tin oxide conductors. The hydrophobic insulation material surface was activated by a brief butane flame pulse through a stainless steel mask. Thus, cell attachment on a confined adhesive region (5 mm diameter centered on the electrode array) is ensured. The activated surface regions were coated with poly-D-lysine (25 μg/ml; 30-70 kD) and laminin (16 μg/ml). Fabrication techniques and culture methods have been described previously.
Frontal cortex tissue was harvested from embryonic day 15, or day 14 chr:NMRI mice. After ethyl ether anesthesia, mice were sacrificed by cervical dislocation according to the German Animal Protection Act §4. […] Cultures were incubated at 37° C. in a 10% CO2 atmosphere until ready for use, which usually is four weeks to three months after seeding. […]
For extracellular recording, MEA neurochips were placed into sterilized constant-bath recording chambers and maintained at 37° C. […] The signals routinely recorded by these neurochips are located in a range of 15-1800 μV. […]

## CN1[C@@H]2CC[C@H]1C[C@@H](OC(=O)C(CO)c1ccccc1)C2 (stereo partly drawn) [Atropine, reference compound]
[1]; positive control, 5×10^−5 mg/ml, FIG. 2
  shift of the acetylcholine concentration response curve: expected competitive neurotropic antispasmodic effect
[1]; positive control, 5×10^−5 mg/ml, FIG. 2, listed as atropine
  shift of the acetylcholine concentration response curve: significantly different from the acetylcholine curve

## COc1ccc(Cc2nccc3cc(OC)c(OC)cc23)cc1OC [Papaverine, reference compound]
[2]; positive control, 4×10^−2 g/ml, FIG. 4
  shift of the Ba++ concentration response curve: expected non-competitive musculotropic antispasmodic effect
[2]; positive control, 4×10^−2 g/ml, FIG. 4, listed as papaverine
  shift of the Ba++ concentration response curve: significantly different from the acetylcholine curve without additions

## O=c1cc(-c2ccc(O)cc2)oc2c([C@@H]3O[C@H](CO)[C@@H](O)[C@H](O)[C@H]3O)c(O)c([C@@H]3O[C@H](CO)[C@@H](O)[C@H](O)[C@H]3O)c(O)c12 [vicenin 2, 5,7-Dihydroxy-2-(4-hydroxyphenyl)-6,8-bis[(2S,3R,4R,5S,6R)-3,4,5-trihydroxy-6 (hydroxymethyl)oxan-2-yl]chromen-4-one]
[3]
  effect on rat ileum contraction from its own (direct spasmolytic effect): slight (not significant) relaxation
[1]; 0.005 mg/ml final bath concentration, FIG. 2
  shift of the acetylcholine concentration response curve: shifted the acetylcholine curve to the right in a competitive manner
[1]; 0.005 mg/ml final bath concentration, FIG. 2, listed as AUC-V
  shift of the acetylcholine concentration response curve: significantly different from the acetylcholine curve
[1]; 0.05 mg/ml final bath concentration, FIG. 3
  shift of the acetylcholine concentration response curve: stronger rightward and downward shift of the acetylcholine curve
[1]; 0.05 mg/ml final bath concentration, FIG. 3, listed as AUC-V
  shift of the acetylcholine concentration response curve: significantly different from the acetylcholine curve
[2]; 0.005 mg/ml final bath concentration, FIG. 4
  shift of the Ba++ concentration response curve: shifted the Ba^++ curve downwards
[2]; 0.005 mg/ml final bath concentration, FIG. 4, listed as AUC-V
  shift of the Ba++ concentration response curve: significantly different from the acetylcholine curve without additions
[2]; 0.05 mg/ml final bath concentration, FIG. 5
  shift of the Ba++ concentration response curve: rightward and downward shift of the Ba^++ curve
[2]; 0.05 mg/ml final bath concentration, FIG. 5, listed as AUC-V
  shift of the Ba++ concentration response curve: significantly different from the acetylcholine curve with no further additions
[4]; classified as Amisulpride
  data records classified as the respective substance: 15%
[4]; classified as Atropinemethylbromide
  data records classified as the respective substance: 12%
[4]; classified as DPDPE
  data records classified as the respective substance: 11%
[4]; classified as Enkephalin
  data records classified as the respective substance: 14%
[4]; classified as Eserine
  data records classified as the respective substance: 15%
[4]; classified as Indatraline
  data records classified as the respective substance: 12%
[4]; classified as Modafinil
  data records classified as the respective substance: 12%
[4]; classified as Nicotine
  data records classified as the respective substance: 12%
[4]; classified as Olanzapine
  data records classified as the respective substance: 17%
[4]; classified as Sodium dodecyl sulfate
  data records classified as the respective substance: 12%
[5]
  solubility: good solubility
[6]
  effect on burst structure of the network: no affects on the burst structure
[6]; Mus musculus, 9 accumulating concentrations, FIG. 6, read-out: EC50 of decrease of the cortical network activity (spike rate)
  EC50: 2 µg/mL (≈ 3.36 µM)
[6]; remaining activity, FIG. 6
  maximum decrease of the cortical network activity: 80 % of the native activity
